Test results published in ChEMBL document CHEMBL3046635, “Synthesis and Herbicidal Activity of New Pyrazole-4-carboxamide Derivatives” (J Pestic Sci, 2004).
Calls of active or inactive are those of the source.

How the values were obtained:
Lindernia procumbens [1] = assay: Pre-emergence herbicidal activity against Lindernia procumbens at 500 g a.i/ha measured after 14 days; assay type: functional, organism-based
[2] = tested on: Schoenoplectiella juncoides; assay: Pre-emergence herbicidal activity against Schoenoplectiella juncoides at 100 g a.i/ha measured after 14 days; assay type: functional, organism-based
Eleocharis acicularis [3] = assay: Pre-emergence herbicidal activity against Eleocharis acicularis assessed as bleaching of stem/leaf parts; assay type: functional, organism-based
Rotala indica [4] = assay: Pre-emergence herbicidal activity against Rotala indica at 100 g a.i/ha measured after 14 days; assay type: functional, organism-based
Rotala indica [5] = assay: Pre-emergence herbicidal activity against Rotala indica assessed as bleaching of stem/leaf parts; assay type: functional, organism-based
[6] = tested on: Schoenoplectiella juncoides; assay: Post-emergence herbicidal activity against Schoenoplectiella juncoides assessed as bleaching of stem/leaf parts; assay type: functional, organism-based; further: test concentration or dose not given here
Elatine triandra [7] = assay: Pre-emergence herbicidal activity against Elatine triandra at 500 g a.i/ha measured after 14 days; assay type: functional, organism-based
Cyperus difformis [8] = assay: Pre-emergence herbicidal activity against Cyperus difformis at 500 g a.i/ha measured after 14 days; assay type: functional, organism-based
Elatine triandra [9] = assay: Post-emergence herbicidal activity against Elatine triandra assessed as bleaching of stem/leaf parts; assay type: functional, organism-based; further: test concentration or dose not given here
Ammannia multiflora [10] = assay: Pre-emergence herbicidal activity against Ammannia multiflora at 100 g a.i/ha measured after 14 days; assay type: functional, organism-based
Echinochloa oryzicola [11] = assay: Post-emergence herbicidal activity against Echinochloa oryzicola assessed as bleaching of stem/leaf parts; assay type: functional, organism-based; further: test concentration or dose not given here
Lindernia procumbens [12] = assay: Pre-emergence herbicidal activity against Lindernia procumbens assessed as bleaching of stem/leaf parts; assay type: functional, organism-based
Lindernia procumbens [13] = assay: Pre-emergence herbicidal activity against Lindernia procumbens at 100 g a.i/ha measured after 14 days; assay type: functional, organism-based
Pontederia vaginalis [14] = assay: Pre-emergence herbicidal activity against Monochoria vaginalis at 100 g a.i/ha measured after 14 days; assay type: functional, organism-based
Pontederia vaginalis [15] = assay: Pre-emergence herbicidal activity against Monochoria vaginalis assessed as bleaching of stem/leaf parts; assay type: functional, organism-based
Cyperus difformis [16] = assay: Pre-emergence herbicidal activity against Cyperus difformis at 100 g a.i/ha measured after 14 days; assay type: functional, organism-based
Ammannia multiflora [17] = assay: Pre-emergence herbicidal activity against Ammannia multiflora at 500 g a.i/ha measured after 14 days; assay type: functional, organism-based
Pontederia vaginalis [18] = assay: Post-emergence herbicidal activity against Monochoria vaginalis assessed as bleaching of stem/leaf parts; assay type: functional, organism-based; further: test concentration or dose not given here
Echinochloa oryzicola [19] = assay: Pre-emergence herbicidal activity against Echinochloa oryzicola at 100 g a.i/ha measured after 14 days; assay type: functional, organism-based
[20] = tested on: Schoenoplectiella juncoides; assay: Pre-emergence herbicidal activity against Schoenoplectiella juncoides assessed as bleaching of stem/leaf parts; assay type: functional, organism-based
Pontederia vaginalis [21] = assay: Pre-emergence herbicidal activity against Monochoria vaginalis at 500 g a.i/ha measured after 14 days; assay type: functional, organism-based
Oryza sativa [22] = assay: Phytotoxicity against Oryza sativa cv. Koshihikari (rice) at 500 g a.i/ha measured after 14 days; assay type: organism-based; details: in vivo, 336 h
Cyperus difformis [23] = assay: Post-emergence herbicidal activity against Cyperus difformis assessed as bleaching of stem/leaf parts; assay type: functional, organism-based; further: test concentration or dose not given here
Rotala indica [24] = assay: Post-emergence herbicidal activity against Rotala indica assessed as bleaching of stem/leaf parts; assay type: functional, organism-based; further: test concentration or dose not given here
Rotala indica [25] = assay: Pre-emergence herbicidal activity against Rotala indica at 500 g a.i/ha measured after 14 days; assay type: functional, organism-based
Eleocharis acicularis [26] = assay: Pre-emergence herbicidal activity against Eleocharis acicularis at 500 g a.i/ha measured after 14 days; assay type: functional, organism-based
[27] = tested on: Schoenoplectiella juncoides; assay: Pre-emergence herbicidal activity against Schoenoplectiella juncoides at 500 g a.i/ha measured after 14 days; assay type: functional, organism-based
Echinochloa oryzicola [28] = assay: Pre-emergence herbicidal activity against Echinochloa oryzicola assessed as bleaching of stem/leaf parts; assay type: functional, organism-based
Lindernia procumbens [29] = assay: Post-emergence herbicidal activity against Lindernia procumbens assessed as bleaching of stem/leaf parts; assay type: functional, organism-based; further: test concentration or dose not given here
Ammannia multiflora [30] = assay: Post-emergence herbicidal activity against Ammannia multiflora assessed as bleaching of stem/leaf parts; assay type: functional, organism-based; further: test concentration or dose not given here
Eleocharis acicularis [31] = assay: Post-emergence herbicidal activity against Eleocharis acicularis assessed as bleaching of stem/leaf parts; assay type: functional, organism-based; further: test concentration or dose not given here
Echinochloa oryzicola [32] = assay: Pre-emergence herbicidal activity against Echinochloa oryzicola at 500 g a.i/ha measured after 14 days; assay type: functional, organism-based
Elatine triandra [33] = assay: Pre-emergence herbicidal activity against Elatine triandra at 100 g a.i/ha measured after 14 days; assay type: functional, organism-based
Cyperus difformis [34] = assay: Pre-emergence herbicidal activity against Cyperus difformis assessed as bleaching of stem/leaf parts; assay type: functional, organism-based
Eleocharis acicularis [35] = assay: Pre-emergence herbicidal activity against Eleocharis acicularis at 100 g a.i/ha measured after 14 days; assay type: functional, organism-based
Ammannia multiflora [36] = assay: Pre-emergence herbicidal activity against Ammannia multiflora assessed as bleaching of stem/leaf parts; assay type: functional, organism-based
Oryza sativa [37] = assay: Phytotoxicity against Oryza sativa cv. Koshihikari (rice) at 100 g a.i/ha measured after 14 days; assay type: organism-based; details: in vivo, 336 h
Elatine triandra [38] = assay: Pre-emergence herbicidal activity against Elatine triandra assessed as bleaching of stem/leaf parts; assay type: functional, organism-based

SMILES: Cn1cc(C(=O)NOc2ccccc2Cl)c(OCc2cccc(C(F)(F)F)c2)n1
- Activity (Lindernia procumbens [1]): Active
- Activity [2]: inactive
- Activity (Eleocharis acicularis [3]): Active
- Activity (Rotala indica [4]): Active
- Activity (Rotala indica [5]): Active
- Activity [6]: Active
- Activity (Elatine triandra [7]): Active
- Activity (Cyperus difformis [8]): Active
- Activity (Elatine triandra [9]): Active
- Activity (Ammannia multiflora [10]): Active
- Activity (Echinochloa oryzicola [11]): Active
- Activity (Lindernia procumbens [12]): Active
- Activity (Lindernia procumbens [13]): Active
- Activity (Pontederia vaginalis [14]): Active
- Activity (Pontederia vaginalis [15]): Active
- Activity (Cyperus difformis [16]): Active
- Activity (Ammannia multiflora [17]): Active
- Activity (Pontederia vaginalis [18]): Active
- Activity (Echinochloa oryzicola [19]): inactive
- Activity [20]: Active
- Activity (Pontederia vaginalis [21]): Active
- Activity (Oryza sativa [22]): Non-toxic
- Activity (Cyperus difformis [23]): Active
- Activity (Rotala indica [24]): Active
- Activity (Rotala indica [25]): Active
- Activity (Eleocharis acicularis [26]): Active
- Activity [27]: Active
- Activity (Echinochloa oryzicola [28]): Active
- Activity (Lindernia procumbens [29]): Active
- Activity (Ammannia multiflora [30]): Active
- Activity (Eleocharis acicularis [31]): Active
- Activity (Echinochloa oryzicola [32]): Active
- Activity (Elatine triandra [33]): Active
- Activity (Cyperus difformis [34]): Active
- Activity (Eleocharis acicularis [35]): Active
- Activity (Ammannia multiflora [36]): Active
- Activity (Oryza sativa [37]): Non-toxic
- Activity (Elatine triandra [38]): Active

SMILES: Cn1cc(C(=O)NOc2ccc(Cl)cc2)c(OCc2cccc(C(F)(F)F)c2)n1
- Activity (Lindernia procumbens [1]): Active
- Activity [2]: Active
- Activity (Eleocharis acicularis [3]): Active
- Activity (Rotala indica [4]): Active
- Activity (Rotala indica [5]): Active
- Activity [6]: Active
- Activity (Elatine triandra [7]): Active
- Activity (Cyperus difformis [8]): Active
- Activity (Elatine triandra [9]): Active
- Activity (Ammannia multiflora [10]): Active
- Activity (Echinochloa oryzicola [11]): Active
- Activity (Lindernia procumbens [12]): Active
- Activity (Lindernia procumbens [13]): Active
- Activity (Pontederia vaginalis [14]): Active
- Activity (Pontederia vaginalis [15]): Active
- Activity (Cyperus difformis [16]): Active
- Activity (Ammannia multiflora [17]): Active
- Activity (Pontederia vaginalis [18]): Active
- Activity (Echinochloa oryzicola [19]): inactive
- Activity [20]: Active
- Activity (Pontederia vaginalis [21]): Active
- Activity (Oryza sativa [22]): Non-toxic
- Activity (Cyperus difformis [23]): Active
- Activity (Rotala indica [24]): Active
- Activity (Rotala indica [25]): Active
- Activity (Eleocharis acicularis [26]): Active
- Activity [27]: Active
- Activity (Echinochloa oryzicola [28]): Active
- Activity (Lindernia procumbens [29]): Active
- Activity (Ammannia multiflora [30]): Active
- Activity (Eleocharis acicularis [31]): Active
- Activity (Echinochloa oryzicola [32]): Active
- Activity (Elatine triandra [33]): Active
- Activity (Cyperus difformis [34]): Active
- Activity (Eleocharis acicularis [35]): Active
- Activity (Ammannia multiflora [36]): Active
- Activity (Oryza sativa [37]): Non-toxic
- Activity (Elatine triandra [38]): Active

SMILES: Cn1cc(C(=O)NOc2ccc(C(F)(F)F)cc2)c(OCc2cccc(C(F)(F)F)c2)n1
- Activity (Lindernia procumbens [1]): Active
- Activity [2]: Active
- Activity (Eleocharis acicularis [3]): Active
- Activity (Rotala indica [4]): Active
- Activity (Rotala indica [5]): Active
- Activity [6]: Active
- Activity (Elatine triandra [7]): Active
- Activity (Cyperus difformis [8]): Active
- Activity (Elatine triandra [9]): Active
- Activity (Ammannia multiflora [10]): Active
- Activity (Echinochloa oryzicola [11]): Active
- Activity (Lindernia procumbens [12]): Active
- Activity (Lindernia procumbens [13]): Active
- Activity (Pontederia vaginalis [14]): Active
- Activity (Pontederia vaginalis [15]): Active
- Activity (Cyperus difformis [16]): Active
- Activity (Ammannia multiflora [17]): Active
- Activity (Pontederia vaginalis [18]): Active
- Activity (Echinochloa oryzicola [19]): Active
- Activity [20]: Active
- Activity (Pontederia vaginalis [21]): Active
- Activity (Oryza sativa [22]): Non-toxic
- Activity (Cyperus difformis [23]): Active
- Activity (Rotala indica [24]): Active
- Activity (Rotala indica [25]): Active
- Activity (Eleocharis acicularis [26]): Active
- Activity [27]: Active
- Activity (Echinochloa oryzicola [28]): Active
- Activity (Lindernia procumbens [29]): Active
- Activity (Ammannia multiflora [30]): Active
- Activity (Eleocharis acicularis [31]): Active
- Activity (Echinochloa oryzicola [32]): Active
- Activity (Elatine triandra [33]): Active
- Activity (Cyperus difformis [34]): Active
- Activity (Eleocharis acicularis [35]): Active
- Activity (Ammannia multiflora [36]): Active
- Activity (Oryza sativa [37]): Non-toxic
- Activity (Elatine triandra [38]): Active
